Laboratory results reported in ChEMBL document CHEMBL1155170, “Rapid dissemination and diversity of CTX-M extended-spectrum beta-lactamase genes in commensal Escherichia coli isolates from healthy children from low-resource settings in Latin America” (2007).

How the values were obtained:
Escherichia coli [1] = test: Antimicrobial activity against CTX-M extended-spectrum beta-lactamase producing commensal Escherichia coli isolates from healthy children assessed as percent resistant isolates by disc diffusion method; format: functional
Escherichia coli [2] = test: Antimicrobial activity against CTX-M-15 extended-spectrum beta-lactamase producing commensal Escherichia coli isolates from healthy children assessed as percent resistant isolates by disc diffusion method; format: functional

| Structure (SMILES) | Activity (Escherichia coli [1]) [%] | Activity (Escherichia coli [2]) [%] |
| --- | --- | --- |
| CN(C)[C@@H]1C(O)=C(C(N)=O)C(=O)[C@@]2(O)C(O)=C3C(=O)c4c(O)cccc4[C@@](C)(O)[C@H]3C[C@@H]12 [TETRACYCLINE] | 86 |  |
| CCn1cc(C(=O)O)c(=O)c2ccc(C)nc21 [NALIDIXIC ACID] | 57 | 93 |
| O=C(O)c1cn(C2CC2)c2cc(N3CCNCC3)c(F)cc2c1=O [CIPROFLOXACIN] | 54 | 93 |
